Test results from patent US20140235533A1, “DIHYDROFURAN DERIVATIVES AS INSECTICIDAL COMPOUNDS” (SYNGENTA PARTICIPATIONS AG, priority 2011, published 2014).

Experiments:
Type in all cases: in vivo
[1] = tested on: Heliothis virescens; test: Heliothis virescens (tobacco budworm) egg test on artificial diet; settings: 96 h, 200 ppm (concentration in well 18 ppm), eggs 0-24 h old on artificial diet, egg mortality, larval mortality, growth regulation after 4 days
Experimental: Heliothis virescens (Tobacco Budworm):
Eggs (0-24 h old) were placed in 24-well microtiter plate on artificial diet and treated with test solutions at an application rate of 200 ppm (concentration in well 18 ppm) by pipetting. After an incubation period of 4 days, samples were checked for egg mortality, larval mortality, and growth regulation. The following compound gave at least 80% control of Heliothis virescens: A1, A2, A03, A05, A06, A07, A08, A09, A10, A11, A12, A13, A14, A15, A16, A17, A18, A19, A20, A21, A22, A25, A26, A27, A31, A32, A34, A37, A39, A40, A42, A44, A45, A46, A47, A48, A49, A50, A51, A52, A53, B1**.

[2] = tested on: Plutella xylostella; test: Plutella xylostella (diamond back moth) artificial diet MTP test; settings: 144 h, 200 ppm (concentration in well 18 ppm), L2 larvae, larval mortality and growth regulation after 6 days
Experimental: (§1) Plutella xylostella (Diamond Back Moth): 24-well microtiter plate (MTP) with artificial diet was treated with test solutions at an application rate of 200 ppm (concentration in well 18 ppm) by pipetting. After drying, the MTPs were infested with L2 larvae (7-12 per well). After an incubation period of 6 days, samples were checked for larval mortality and growth regulation.

[3] = tested on: Spodoptera littoralis; test: Spodoptera littoralis (Egyptian cotton leafworm) cotton leaf disc spray test; settings: foliar, 72 h, 200 ppm spray on cotton leaf discs, 5 L1 larvae, mortality, feeding behavior, growth regulation 3 days after treatment
Description: Spodoptera littoralis (Egyptian Cotton Leafworm) Cotton leaf discs were placed on agar in a 24-well microtiter plate and sprayed with test solutions at an application rate of 200 ppm. After drying, the leaf discs were infested with 5 L1 larvae. The samples were checked for mortality, feeding behavior, and growth regulation 3 days after treatment (DAT).

[4] = tested on: Diabrotica balteata; test: Diabrotica balteata (corn root worm) artificial diet MTP test; settings: 120 h, 200 ppm (concentration in well 18 ppm), L2 larvae, larval mortality and growth regulation after 5 days
Experimental: as §1, with “Diabrotica balteata (Corn Root Worm): A” for “Plutella xylostella (Diamond Back Moth):”, “(6-10” for “(7-12”, “5” for “6”

With `O=C(NCc1ccc(C2=COC(c3cc(Cl)cc(Cl)c3)(C(F)(F)F)C2)cc1Cl)c1cnnc2ccccc12` (centres unmarked) [Compound A34, N-[[2-chloro-4-[2-(3,5-dichlorophenyl)-2-(trifluoromethyl)-3H-furan-4-yl]phenyl]methyl]cinnoline-4-carboxamide] the pest or weed control at 200 ppm [1] was ≥ 80% and the pest or weed control at 200 ppm [2] was ≥ 80%.
For `O=C(CCC(=O)c1ccccc1)NCc1ccc(C2=COC(c3cc(Cl)cc(Cl)c3)(C(F)(F)F)C2)cc1Cl` (centres unmarked) [Compound A13, N-[[2-chloro-4-[2-(3,5-dichlorophenyl)-2-(trifluoromethyl)-3H-furan-4-yl]phenyl]methyl]-4-oxo-4-phenyl-butanamide], the pest or weed control at 200 ppm [1] was ≥ 80%, the pest or weed control at 200 ppm [3] was ≥ 80% and the pest or weed control at 200 ppm [2] was ≥ 80%.
With `O=C(CSc1nc2ccccc2[nH]1)NCc1ccc(C2=COC(c3cc(Cl)cc(Cl)c3)(C(F)(F)F)C2)cc1Cl` (centres unmarked) [Compound A12, 2-(1H-benzimidazol-2-ylsulfanyl)-N-[[2-chloro-4-[2-(3,5-dichlorophenyl)-2-(trifluoromethyl)-3H-furan-4-yl]phenyl]methyl]acetamide] the pest or weed control at 200 ppm [1] was ≥ 80% and the pest or weed control at 200 ppm [2] was ≥ 80%.
In the case of `CCC(Cl)C(=O)NCc1ccc(C2=COC(c3cc(Cl)cc(Cl)c3)(C(F)(F)F)C2)cc1Cl` (centres unmarked) [Compound A47, 2-chloro-N-[[2-chloro-4-[2-(3,5-dichlorophenyl)-2-(trifluoromethyl)-3H-furan-4-yl]phenyl]methyl]butanamide], the pest or weed control at 200 ppm [1] is reported as ≥ 80%, the pest or weed control at 200 ppm [3] is reported as ≥ 80% and the pest or weed control at 200 ppm [2] is reported as ≥ 80%. For the same compound, the pest or weed control at 200 ppm [4] was ≥ 80%.
With `Cc1onc(-c2ccccc2)c1C(=O)NCc1ccc(C2=COC(c3cc(Cl)cc(Cl)c3)(C(F)(F)F)C2)cc1Cl` (centres unmarked) [Compound A45, N-[[2-chloro-4-[2-(3,5-dichlorophenyl)-2-(trifluoromethyl)-3H-furan-4-yl]phenyl]methyl]-5-methyl-3-phenyl-isoxazole-4-carboxamide] the pest or weed control at 200 ppm [1] was ≥ 80%.
For `O=C(/C=C/c1ccco1)NCc1ccc(C2=COC(c3cc(Cl)cc(Cl)c3)(C(F)(F)F)C2)cc1Cl` (centres unmarked) [Compound A10, (E)-N-[[2-chloro-4-[2-(3,5-dichlorophenyl)-2-(trifluoromethyl)-3H-furan-4-yl]phenyl]methyl]-3-(2-furyl)prop-2-enamide], the pest or weed control at 200 ppm [1] was ≥ 80% and the pest or weed control at 200 ppm [2] was ≥ 80%.
In the case of `O=C(COc1ccc(Cl)cc1)NCc1ccc(C2=COC(c3cc(Cl)cc(Cl)c3)(C(F)(F)F)C2)cc1Cl` (centres unmarked) [Compound A25, N-[[2-chloro-4-[2-(3,5-dichlorophenyl)-2-(trifluoromethyl)-3H-furan-4-yl]phenyl]methyl]-2-(4-chlorophenoxy)acetamide], the pest or weed control at 200 ppm [1] is reported as ≥ 80%.
With `O=C(CCc1ccccc1)NCc1ccc(C2=COC(c3cc(Cl)cc(Cl)c3)(C(F)(F)F)C2)cc1Cl` (centres unmarked) [Compound A09, N-[[2-chloro-4-[2-(3,5-dichlorophenyl)-2-(trifluoromethyl)-3H-furan-4-yl]phenyl]methyl]-3-phenyl-propanamide] the pest or weed control at 200 ppm [1] was ≥ 80%, the pest or weed control at 200 ppm [2] was ≥ 80% and the pest or weed control at 200 ppm [4] was ≥ 80%.
`O=C(NCc1ccc(C2=COC(c3cc(Cl)cc(Cl)c3)(C(F)(F)F)C2)cc1Cl)c1cccs1` (centres unmarked) [Compound A44, N-[[2-chloro-4-[2-(3,5-dichlorophenyl)-2-(trifluoromethyl)-3H-furan-4-yl]phenyl]methyl]thiophene-2-carboxamide] was tested, and the pest or weed control at 200 ppm [1] was ≥ 80%, the pest or weed control at 200 ppm [3] was ≥ 80% and the pest or weed control at 200 ppm [2] was ≥ 80%. The pest or weed control at 200 ppm [4] was ≥ 80%.
With `O=C(/C=C/c1ccccc1Cl)NCc1ccc(C2=COC(c3cc(Cl)cc(Cl)c3)(C(F)(F)F)C2)cc1Cl` (centres unmarked) [Compound A17, (E)-N-[[2-chloro-4-[2-(3,5-dichlorophenyl)-2-(trifluoromethyl)-3H-furan-4-yl]phenyl]methyl]-3-(2-chlorophenyl)prop-2-enamide] the pest or weed control at 200 ppm [1] was ≥ 80%.
For `O=C(CCN1C(=O)c2ccccc2C1=O)NCc1ccc(C2=COC(c3cc(Cl)cc(Cl)c3)(C(F)(F)F)C2)cc1Cl` (centres unmarked) [Compound A22, N-[[2-chloro-4-[2-(3,5-dichlorophenyl)-2-(trifluoromethyl)-3H-furan-4-yl]phenyl]methyl]-3-(1,3-dioxoisoindolin-2-yl)propanamide], the pest or weed control at 200 ppm [1] was ≥ 80%, the pest or weed control at 200 ppm [3] was ≥ 80% and the pest or weed control at 200 ppm [2] was ≥ 80%. The pest or weed control at 200 ppm [4] was ≥ 80%.
In the case of `O=C(NCc1ccc(C2=COC(c3cc(Cl)cc(Cl)c3)(C(F)(F)F)C2)cc1Cl)c1cc(Cl)ccc1Cl` (centres unmarked) [Compound A28, 2,5-dichloro-N-[[2-chloro-4-[2-(3,5-dichlorophenyl)-2-(trifluoromethyl)-3H-furan-4-yl]phenyl]methyl]benzamide], the pest or weed control at 200 ppm [2] is reported as ≥ 80%.
For `O=C(NCc1ccc(C2=COC(c3cc(Cl)cc(Cl)c3)(C(F)(F)F)C2)cc1Cl)c1ccc(O)c(F)c1` (centres unmarked) [Compound A52, N-[[2-chloro-4-[2-(3,5-dichlorophenyl)-2-(trifluoromethyl)-3H-furan-4-yl]phenyl]methyl]-3-fluoro-4-hydroxy-benzamide], the pest or weed control at 200 ppm [1] was ≥ 80% and the pest or weed control at 200 ppm [2] was ≥ 80%.
With `O=C(/C=C/c1ccccc1F)NCc1ccc(C2=COC(c3cc(Cl)cc(Cl)c3)(C(F)(F)F)C2)cc1Cl` (centres unmarked) [Compound A16, (E)-N-[[2-chloro-4-[2-(3,5-dichlorophenyl)-2-(trifluoromethyl)-3H-furan-4-yl]phenyl]methyl]-3-(2-fluorophenyl)prop-2-enamide] the pest or weed control at 200 ppm [1] was ≥ 80%.
`O=C(NCc1ccc(C2=COC(c3cc(Cl)cc(Cl)c3)(C(F)(F)F)C2)cc1Cl)c1ccc2nsnc2c1` (centres unmarked) [Compound A21, N-[[2-chloro-4-[2-(3,5-dichlorophenyl)-2-(trifluoromethyl)-3H-furan-4-yl]phenyl]methyl]-2,1,3-benzothiadiazole-5-carboxamide] was tested, and the pest or weed control at 200 ppm [1] was ≥ 80%.
With `O=C(NCc1ccc(C2=COC(c3cc(Cl)cc(Cl)c3)(C(F)(F)F)C2)cc1Cl)c1c[nH]cn1` (centres unmarked) [Compound A31, N-[[2-chloro-4-[2-(3,5-dichlorophenyl)-2-(trifluoromethyl)-3H-furan-4-yl]phenyl]methyl]-1H-imidazole-4-carboxamide] the pest or weed control at 200 ppm [1] was ≥ 80%, the pest or weed control at 200 ppm [3] was ≥ 80% and the pest or weed control at 200 ppm [2] was ≥ 80%.
In the case of `CSC1(C(=O)NCc2ccc(C3=COC(c4cc(Cl)cc(Cl)c4)(C(F)(F)F)C3)cc2Cl)CC1` (centres unmarked) [Compound A49, N-[[2-chloro-4-[2-(3,5-dichlorophenyl)-2-(trifluoromethyl)-3H-furan-4-yl]phenyl]methyl]-1-methylsulfanyl-cyclopropanecarboxamide], the pest or weed control at 200 ppm [1] is reported as ≥ 80%, the pest or weed control at 200 ppm [3] is reported as ≥ 80% and the pest or weed control at 200 ppm [2] is reported as ≥ 80%.
`CSc1ccc(C(=O)NCc2ccc(C3=COC(c4cc(Cl)cc(Cl)c4)(C(F)(F)F)C3)cc2Cl)cc1` (centres unmarked) [Compound A27, N-[[2-chloro-4-[2-(3,5-dichlorophenyl)-2-(trifluoromethyl)-3H-furan-4-yl]phenyl]methyl]-4-methylsulfanyl-benzamide] was tested, and the pest or weed control at 200 ppm [1] was ≥ 80% and the pest or weed control at 200 ppm [4] was ≥ 80%.
For `O=C(NCc1ccc(C2=COC(c3cc(Cl)cc(Cl)c3)(C(F)(F)F)C2)cc1Cl)c1ccc(-c2ccccn2)s1` (centres unmarked) [Compound A42, N-[[2-chloro-4-[2-(3,5-dichlorophenyl)-2-(trifluoromethyl)-3H-furan-4-yl]phenyl]methyl]-5-(2-pyridyl)thiophene-2-carboxamide], the pest or weed control at 200 ppm [1] was ≥ 80%.
`O=C(NCc1ccc(C2=COC(c3cc(Cl)cc(Cl)c3)(C(F)(F)F)C2)cc1Cl)c1ccc2c(c1)OCCCO2` (centres unmarked) [Compound A32, N-[[2-chloro-4-[2-(3,5-dichlorophenyl)-2-(trifluoromethyl)-3H-furan-4-yl]phenyl]methyl]-3,4-dihydro-2H-1,5-benzodioxepine-7-carboxamide] was tested, and the pest or weed control at 200 ppm [1] was ≥ 80%.
`O=C(NCc1ccc(C2=COC(c3cc(Cl)cc(Cl)c3)(C(F)(F)F)C2)cc1Cl)c1ncoc1-c1ccccc1` (centres unmarked) [Compound A38, N-[[2-chloro-4-[2-(3,5-dichlorophenyl)-2-(trifluoromethyl)-3H-furan-4-yl]phenyl]methyl]-5-phenyl-oxazole-4-carboxamide] was tested, and the pest or weed control at 200 ppm [3] was ≥ 80%.
With `O=C(NCc1ccc(C2=COC(c3cc(Cl)cc(Cl)c3)(C(F)(F)F)C2)cc1Cl)c1ccc2sccc2c1` (centres unmarked) [Compound A37, N-[[2-chloro-4-[2-(3,5-dichlorophenyl)-2-(trifluoromethyl)-3H-furan-4-yl]phenyl]methyl]benzothiophene-5-carboxamide] the pest or weed control at 200 ppm [1] was ≥ 80%.
